# According to patent US20200087258A1, “INHIBITOR OF CITRATE TRANSPORTER AND THEIR USE IN THERAPY” (Eternygen GmbH, priority 2017, published 2020):
# Target: INDY (Homo sapiens, UniProt Q86YT5)
# Test: 14C-citrate uptake in HEK293 cells overexpressing recombinant human INDY (NaCT)
# Assay type: cell-based
# Design: expressed in transfected cells; host or cells: HEK293
# Method: The compound was obtained by screening of a library containing more than 50,000 lead-like compounds and fragments. The library was tested using a functional citrate uptake assay with HEK293 cells overexpressing recombinant human INDY. The following hit confirmation was conducted in the same assay system. To confirm the activity of selected compounds on the target INDY another cell assay was conducted. In this assay system citrate uptake was measured using HepG2 cells which endogenously express INDY. Furthermore selectivity of selected compounds was tested for two other transporters in different assay systems. The first transporter was the glutamate transporter GLT-1 tested in a glutamate uptake assays using HEK293 cells overexpressing recombinant human GLT-1. The second transporter was the glucose transporter GLUT1 tested in a glucose uptake assay using Huh-7 cells which endogenously express GLUT1. Compounds were considered to be selective with an at least 5-fold higher activity for INDY than for the other two transporters.
# Cells were maintained in cell medium using cell culture grade flasks (CellSTACK Corning, 500 cm2 dishes or T175 depending on cell number). The selection antibiotic and G418 (800 μg/ml) was added during cultivation but not for seeding into assay plates. For splitting, cells were washed with PBS (w/o Ca2+, Mg2+, phenol red) and detached with Trypsin/EDTA. Throughout cultivation cells were kept sub-confluent. Detached cells (50,000 cells/well) were seeded in 96-well plates (white, clear bottom from Corning #655098) and incubated over night before usage in the assay. The following media were used. For HEK293 cells expressing INDY MEM (PAA)+10% FCS+1×P/S+2 mM L-Gln; for HEK293 cells expressing GLT-1 DMEM (Gibco)+10% FCS+400 µg/ml G418; for Huh7 cells DMEM (Gibco)+10% FCS+2 mM L-Gin (+1×P/S); for HepG2 cells MEM (PAA, Cat # E15-024)+10% FCS+2 mM L-Gin+1×NEAA+1 mM Na-Pyruvat
# The following assay buffers for the particular uptake reaction were used. Citrate uptake buffer: 120 mM NaCl, 5.4 mM KCl, 0.8 mM MgSO4, 5 mM glucose, 1.8 mM CaCl2, 25 mM Hepes, 25 mM MES, pH 6.5. Glutamate uptake buffer: HBSS, 1 mM CaCl2, 1 mM MgCl2, 20 mM Hepes pH 7.4. Glucose uptake buffer: 25 mM Hepes+25 mM MES pH 7.4, 120 mM NaCl, 5.4 mM KCl, 1.8 mM CaCl2, 0.8 mM MgSO4.
# INDY mediated citrate uptake was determined in HEK293 cells. To determine the uptake of ^14C labelled citrate into cells, HEK293 cells over-expressing human NaCT were used. Cloning of human NaCT was done in analogy as described in Birkenfeld et al. (Birkenfeld et al., 2011, Cell Metabolism 14, 184-195, 2011).
# Human NaCT HEK293 cells were seeded into white clear-bottom 96-well plates (50,000/well) in the presence of 4 μg/ml Poly-D-Lysine and incubated at 37° C. for 16-24 hours. On the days of the assay the plates were washed once with assay buffer using automated washing/LS 405 Selectors, BioTek ending with a buffer volume of 40 μl. Then 5 μl of compound solution in assay buffer was added and incubated for 5-30 min at 37° C. in cell incubator, HERA cell Heraeus. Afterwards 10 μl of substrate 14C-citrate ([…]/[…] per well) were added and incubated for another 20-90 min at 37° C. in cell incubator, HERAcell. Then plates were washed twice with 200 μl ice-cold assay buffer and residual volume was discarded. For cell lysis 50 μl ice-cold NaOH (100 mM) was added and incubated for 15 minutes at RT on a plate shaker. Finally, 200 μl scintillation fluid (scintillator OptiPhase Supermix, Perkin Elmer) was added. After 15 min incubation at RT without shaking, plates were measured using a TopCount reader system (Perkin Elmer). As a positive control 10 mM citrate was applied. It is possible to use this assay also in analogy in a 384-well plate format.
# Chain of INDY (Q86YT5 whole entry): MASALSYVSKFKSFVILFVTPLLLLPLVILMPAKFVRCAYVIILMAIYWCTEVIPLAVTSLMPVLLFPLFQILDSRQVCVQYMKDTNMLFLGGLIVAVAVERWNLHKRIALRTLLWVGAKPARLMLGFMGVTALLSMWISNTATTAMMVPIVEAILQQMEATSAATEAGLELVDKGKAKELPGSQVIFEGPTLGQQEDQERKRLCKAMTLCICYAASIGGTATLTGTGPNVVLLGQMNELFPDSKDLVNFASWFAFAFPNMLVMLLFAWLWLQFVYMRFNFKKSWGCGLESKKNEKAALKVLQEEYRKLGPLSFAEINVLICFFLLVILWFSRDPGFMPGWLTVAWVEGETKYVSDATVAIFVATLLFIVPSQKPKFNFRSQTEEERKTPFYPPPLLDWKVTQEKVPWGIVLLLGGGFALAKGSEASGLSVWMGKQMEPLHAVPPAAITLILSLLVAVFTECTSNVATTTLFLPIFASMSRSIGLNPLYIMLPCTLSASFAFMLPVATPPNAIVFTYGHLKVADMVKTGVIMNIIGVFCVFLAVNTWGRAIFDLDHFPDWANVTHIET
row,Structure (SMILES),IC50 [µM]
1,"COC(=O)c1ccc(S(=O)(=O)N2CCC(C(=O)NCc3ccccc3F)CC2)cc1 [Example 89, methyl 4-[(4-{[(2-fluorophenyl)methyl]carbamoyl}piperidin-1-yl)sulfonyl]benzoate]",> 20
2,"O=C(O)c1cccc(S(=O)(=O)N2CCC(C(=O)NCc3ccccc3F)CC2)c1 [Example 90, 3-[(4-{[(2-fluorophenyl)methyl]carbamoyl}piperidin-1-yl)sulfonyl]benzoic acid]",> 20
3,"O=C(NCc1ccccn1)C1CCN(S(=O)(=O)c2c(Cl)cccc2Cl)CC1 [Example 63, 1-(2,6-dichlorobenzenesulfonyl)-N-[(pyridin-2-yl)methyl]piperidine-4-carboxamide]",> 20
4,"CCN(CC)C(C)c1cccc(S(=O)(=O)N2CCC(C(=O)NCc3ccccc3F)CC2)c1 (centres unmarked) [Example 113, 1-{3-[1-(diethylamino)ethyl]benzenesulfonyl}-N-[(2-fluorophenyl)methyl]piperidine-4-carboxamide]",> 20
5,"N#Cc1ccc(S(=O)(=O)N2CCC(C(=O)NCc3ccccc3F)CC2)cc1 [Example 13, 1-(4-cyanobenzenesulfonyl)-N-[(2-fluorophenyl)methyl]piperidine-4-carboxamide]",20.6
6,"O=C(NCc1ccccn1)C1CCN(S(=O)(=O)c2cccc(Cl)c2Cl)CC1 [Example 83, 1-(2,3-dichlorobenzenesulfonyl)-N-[(pyridin-2-yl)methyl]pipendine-4-carboxamide]",> 20
7,"O=C(NCc1ccccn1)C1CCN(S(=O)(=O)c2ccc(-c3ccccc3)cc2)CC1 [Example 68, 1-{[1,1′-biphenyl]-4-sulfonyl}-N-[(pyridin-2-yl)methyl]pipendine-4-carboxamide]",19.7
8,"CC(O)c1cccc(S(=O)(=O)N2CCC(C(=O)NCc3ccccc3F)CC2)c1 (centres unmarked) [Example 107, N-[(2-fluorophenyl)methyl]-1-[3-(1-hydroxyethyl)benzenesulfonyl]piperidine-4-carboxamide]",13.2
9,"NCc1ccccc1CNC(=O)C1CCN(S(=O)(=O)c2cc(Cl)cc(Cl)c2)CC1 [Example 98, N-([2-(aminomethyl)phenyl]methyl)-1-(3,5-dichlorobenzenesulfonyl)piperidine-4-carboxamide]",> 20
10,"O=C(NCc1ccccn1)C1CCN(S(=O)(=O)c2ccccc2Cl)CC1 [Example 71, 1-(2-chlorobenzenesulfonyl)-N-[(pyridin-2-yl)methyl]pipendine-4-carboxamide]",14.4
11,"O=C(NCc1ccccc1F)C1CCN(S(=O)(=O)c2ccc(CO)cc2)CC1 [Example 100, N-[(2-fluorophenyl)methyl]-1-[4-(hydroxymethyl)benzenesulfonyl]piperidine-4-carboxamide]",> 20
12,"C/C(=N\O)c1cccc(S(=O)(=O)N2CCC(C(=O)NCc3ccccc3F)CC2)c1 [Example 108, N-[(2-fluorophenyl)methyl]-1-{3-[(1E)-1-(hydroxyimino)ethyl]benzenesulfonyl}piperidine-4-carboxamide]",20.4
13,"CN(Cc1ccccn1)C(=O)C1CCN(S(=O)(=O)c2cc(Cl)cc(Cl)c2)CC1 [Example 128, 1-(3,5-dichlorobenzenesulfonyl)-N-methyl-N-[(pyridin-2-yl)methyl]piperidine-4-carboxamide]",> 20
14,"O=C(NCc1ccc(CO)cc1)C1CCN(S(=O)(=O)c2ccc(C(F)(F)F)cc2)CC1 [Example 104, N-([4-(hydroxymethyl)phenyl]methyl)-1-[4-(trifluoromethyl)benzenesulfonyl]piperidine-4-carboxamide]",> 20
15,"Cc1ccc(S(=O)(=O)N2CCC(C(=O)NCc3ccccn3)CC2)cc1Cl [Example 122, 1-(3-chloro-4-methylbenzenesulfonyl)-N-[(pyridin-2-yl)methyl]piperidine-4-carboxamide]",18.8
16,"CC(=O)Nc1ccc(S(=O)(=O)N2CCC(C(=O)NCc3ccccc3F)CC2)cc1 [Example 20, 1-(4-acetamidobenzenesulfonyl)-N-[(2-fluorophenyl)methyl]piperidine-4-carboxamide]",> 20
17,"COc1ccc(S(=O)(=O)N2CCC(C(=O)NCc3ccccn3)CC2)c(OC)c1 [Example 61, 1-(2,4-dimethoxybenzenesulfonyl)-N-[(pyridin-2-yl)methyl]piperidine-4-carboxamide]",> 20
18,"N#Cc1ccccc1CNC(=O)C1CCN(S(=O)(=O)/C=C/c2ccccc2)CC1 [Example 53, N-[(2-cyanophenyl)methyl]-1-[(E)-2-phenylethenesulfonyl]piperidine-4-carboxamide]",15.9
19,"O=C(NCc1ccccn1)C1CCN(S(=O)(=O)c2cccc(OC(F)(F)F)c2)CC1 [Example 93, N-[(pyridin-2-yl)methyl]-1-[3-(trifluoromethoxy)benzenesulfonyl]piperidine-4-carboxamide]",16.4
20,"CN(C)CCOc1ccc(S(=O)(=O)N2CCC(C(=O)NCc3ccccc3F)CC2)cc1 [Example 102, 1-(4-[2-(dimethylamino)ethoxy]benzenesulfonyl)-N-[(2-fluorophenyl)methyl]piperidine-4-carboxamide]",> 20

# The remaining lines, values ahead:
row,IC50 [µM],Structure (SMILES)
1,> 20,"CN(C)c1ccc(S(=O)(=O)N2CCC(C(=O)NCc3ccccc3F)CC2)cc1 [Example 65, 1-[4-(dimethylamino)benzenesulfonyl]-N-[(2-fluorophenyl)methyl]piperidine-4-carboxamide]"
2,> 20,"O=C(NCc1ccccc1N1CCOCC1)C1CCN(S(=O)(=O)/C=C/c2ccccc2)CC1 [Example 40, N-{[2-(morpholin-4-yl)phenyl]methyl}-1-[(E)-2-phenylethenesulfonyl]piperidine-4-carboxamide]"
3,15.2,"Cc1ccccc1CNC(=O)C1CCN(S(=O)(=O)/C=C/c2ccccc2)CC1 [Example 31, N-[(2-methylphenyl)methyl]-1-[(E)-2-phenylethenesulfonyl]piperidine-4-carboxamide]"
4,> 20,"O=C(NCc1ccc(F)cc1)C1CCN(S(=O)(=O)/C=C/c2ccccc2)CC1 [Example 56, N-[(4-fluorophenyl)methyl]-1-[(E)-2-phenylethenesulfonyl]piperidine-4-carboxamide]"
5,> 20,"O=C(O)c1cccc(CNC(=O)C2CCN(S(=O)(=O)c3cc(Cl)cc(Cl)c3)CC2)c1 [Example 119, 3-({[1-(3,5-dichlorobenzenesulfonyl)piperidin-4-yl]formamido}methyl)benzoic acid]"
6,> 20,"CN(C)c1ccc(S(=O)(=O)N2CCC(C(=O)NCc3ccccn3)CC2)cc1 [Example 64, 1-[4-(dimethylamino)benzenesulfonyl]-N-[(pyridin-2-yl)methyl]piperidine-4-carboxamide]"
7,> 20,"O=C(NCc1ccc2[nH]cnc2c1)C1CCN(S(=O)(=O)/C=C/c2ccccc2)CC1 [Example 14, N-[(1H-1,3-benzodiazol-5-yl)methyl]-1-[(E)-2-phenylethenesulfonyl]piperidine-4-carboxamide]"
8,> 20,"O=Cc1ccc(S(=O)(=O)N2CCC(C(=O)NCc3ccccc3F)CC2)cc1 [Example 94, N-[(2-fluorophenyl)methyl]-1-(4-formylbenzenesulfonyl)piperidine-4-carboxamide]"
9,> 20,"NC(=O)c1ccc(S(=O)(=O)N2CCC(C(=O)NCc3ccccc3F)CC2)cc1 [Example 77, 1-(4-carbamoylbenzenesulfonyl)-N-[(2-fluorophenyl)methyl]pipendine-4-carboxamide]"
